Here are results for eleven molecules from patent US11466033B2 (ENANTA PHARMACEUTICALS, INC., priority 2019, dated 2022).

The assay addresses ASK1 (Homo sapiens (Human), UniProt Q99683). In words: HTRF KinEASE assay, inhibition of ASK1. It is filed as biochemical. The following applies: ASK1 kinase, 100 μM ATP, 1 μM STK3 peptide substrate, TR-FRET. As to the method: Assay HTRF® KinEASE™ Assay
ASK1 was purchased from Thermofisher (Catalogue #PV4011), ATP was purchased from Sigma (Catalogue #A7699), HTRF® KinEASE™ Assay System was obtained from Cisbio (Bedford, Mass.). ½ Area plate was purchased from Perkin Elmer (Catalogue ##6005560). HTRF® KinEASE™-STK is a generic method for measuring serine/threonine kinase activities using a time-resolved fluorescence resonance energy transfer (TR-FRET) immunoassay. The IC50 value for each compound was determined in the presence of compound (various concentration from 0 to 10 μM) and a fixed amount of ATP and peptide substrates. The test compound, 1 μM STK3 peptide substrate, and […] of ASK1 kinase are incubated with kinase reaction buffer containing 50 mM HEPES Ph 7.5, 0.01% BRIJ-35, 10 mM MgCl2, and 1 mM EGTA for 30 minutes. 100 μM ATP is added to start kinase reaction and incubated for 3 hours. The STK3-antibody labeled with Eu^3+-Cryptate and 125 nM streptavidin-XL665 are mixed in a single addition with stop reagents provided by the Cisbio kit used to stop the kinase reaction. Fluorescence is detected using an Envision Multilabeled 2014 reader from PerkinElmer. The Fluorescence is measured at 615 nm (Cryptate) and 665 nm (XL665) and a ratio of 665 nm/615 nm is calculated for each well. The resulting TR-FRET is proportional to the phosphorylation level. Staurosporine was used as the positive control. IC50 was determined by Xlfit 5.3.
By using above method, the inhibition of ASK1 was evaluated for the compounds of Formula (I). Example numbers correspond to those in Table 6.

Chain of ASK1 (Q99683 whole entry): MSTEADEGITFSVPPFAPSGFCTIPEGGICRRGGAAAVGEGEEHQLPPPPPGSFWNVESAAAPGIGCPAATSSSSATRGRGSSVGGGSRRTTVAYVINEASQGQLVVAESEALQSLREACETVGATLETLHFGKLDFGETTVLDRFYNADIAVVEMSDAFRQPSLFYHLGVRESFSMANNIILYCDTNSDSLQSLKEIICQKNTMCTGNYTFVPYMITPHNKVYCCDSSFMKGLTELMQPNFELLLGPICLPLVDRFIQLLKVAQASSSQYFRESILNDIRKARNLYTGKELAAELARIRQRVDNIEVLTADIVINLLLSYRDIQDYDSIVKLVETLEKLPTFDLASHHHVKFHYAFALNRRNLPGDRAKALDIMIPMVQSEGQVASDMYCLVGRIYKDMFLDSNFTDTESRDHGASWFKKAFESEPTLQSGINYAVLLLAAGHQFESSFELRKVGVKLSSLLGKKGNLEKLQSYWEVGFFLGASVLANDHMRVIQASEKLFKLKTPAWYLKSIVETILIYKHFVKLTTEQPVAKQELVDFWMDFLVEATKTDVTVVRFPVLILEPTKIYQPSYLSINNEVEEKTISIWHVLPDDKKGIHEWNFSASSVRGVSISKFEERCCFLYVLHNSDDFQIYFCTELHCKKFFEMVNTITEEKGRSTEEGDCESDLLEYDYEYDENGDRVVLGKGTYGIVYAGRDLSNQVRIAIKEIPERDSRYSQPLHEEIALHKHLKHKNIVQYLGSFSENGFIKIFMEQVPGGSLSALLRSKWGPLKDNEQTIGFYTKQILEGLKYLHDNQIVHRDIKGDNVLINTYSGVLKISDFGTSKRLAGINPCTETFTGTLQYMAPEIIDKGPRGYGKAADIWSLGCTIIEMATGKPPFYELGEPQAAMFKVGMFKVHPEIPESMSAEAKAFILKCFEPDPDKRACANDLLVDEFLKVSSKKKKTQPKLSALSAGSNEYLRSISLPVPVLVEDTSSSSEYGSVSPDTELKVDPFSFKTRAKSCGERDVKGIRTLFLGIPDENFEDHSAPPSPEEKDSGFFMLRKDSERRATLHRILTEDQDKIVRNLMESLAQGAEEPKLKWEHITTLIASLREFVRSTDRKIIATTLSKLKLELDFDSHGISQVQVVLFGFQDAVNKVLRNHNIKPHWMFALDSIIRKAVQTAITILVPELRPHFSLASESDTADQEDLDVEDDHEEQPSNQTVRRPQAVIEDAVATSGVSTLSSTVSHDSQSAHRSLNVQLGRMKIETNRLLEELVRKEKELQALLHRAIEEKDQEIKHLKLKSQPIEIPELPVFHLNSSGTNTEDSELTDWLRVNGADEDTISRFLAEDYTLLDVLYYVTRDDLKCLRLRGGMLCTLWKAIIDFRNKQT

Take `CCOC(=O)N1CCc2cc(OC)c(C(=O)Nc3cccc(-c4nnc5n4CCC5)n3)cc2C1` [Example 21, Ethyl 7-((6-(6,7-dihydro-5H-pyrrolo[2,1-c][1,2,4]triazol-3-yl)pyridin-2-yl)carbamoyl)-6-methoxy-3,4-dihydroisoquinoline-2(1H)-carboxylate]: the concentration for half-maximal inhibition (IC50) fell in the range of 1.25 to 10 nM.

`COc1cc2c(cc1C(=O)Nc1cccc(-c3nnc4n3C(C)(C)CC4)n1)CN(C(=O)[C@@H](O)CC(C)C)CC2` [Example 19, (S)—N-(6-(5,5-dimethyl-6,7-dihydro-5H-pyrrolo[2,1-c][1,2,4]triazol-3-yl)pyridin-2-yl)-2-(2-hydroxy-4-methylpentanoyl)-6-methoxy-1,2,3,4-tetrahydroisoquinoline-7-carboxamide] had an IC50 of less than 1.25 nM.

For `CCOC(=O)N1CCc2cc(F)c(C(=O)Nc3cccc(-c4nnc5n4[C@@H](C)CC5)n3)cc2C1` [Example 13], the IC50 fell in the range of 10 to 100 nM.

With `COCCC(=O)N1CCc2cc(OC)c(C(=O)Nc3cccc(-c4nnc5n4C(C)(C)CC5)n3)cc2C1` [Example 16, N-(6-(5,5-dimethyl-6,7-dihydro-5H-pyrrolo[2,1-c][1,2,4]triazol-3-yl)pyridin-2-yl)-6-methoxy-2-(3-methoxypropanoyl)-1,2,3,4-tetrahydroisoquinoline-7-carboxamide], the half-maximal inhibitory concentration (IC50) is less than 1.25 nM.

For `CCOC(=O)N1CCc2cnc(C(=O)Nc3cccc(-c4nnc5n4[C@H](C)CC5)n3)cc2C1` [Example 15], the concentration for half-maximal inhibition (IC50) was 1.25 to 10 nM.

Molecule `COc1cc2c(cc1C(=O)Nc1cccc(-c3nnc4n3C(C)(C)CC4)n1)CN(C(=O)C(C)(C)CO)CC2` [Example 17, N-(6-(5,5-dimethyl-6,7-dihydro-5H-pyrrolo[2,1-c][1,2,4]triazol-3-yl)pyridin-2-yl)-2-(3-hydroxy-2,2-dimethylpropanoyl)-6-methoxy-1,2,3,4-tetrahydroisoquinoline-7-carboxamide] had a half-maximal inhibitory concentration (IC50) of less than 1.25 nM.

Take `COc1cc2c(cc1C(=O)Nc1cccc(-c3nnc4n3C(C)(C)CC4)n1)CN(C(=O)C(C)(C)O)CC2` [Example 20, N-(6-(5,5-dimethyl-6,7-dihydro-5H-pyrrolo[2,1-c][1,2,4]triazol-3-yl)pyridin-2-yl)-2-(2-hydroxy-2-methylpropanoyl)-6-methoxy-1,2,3,4-tetrahydroisoquinoline-7-carboxamide]: the IC50 was less than 1.25 nM.

Consider `CCOC(=O)N1CCc2cc(F)c(C(=O)Nc3cccc(-c4nnc5n4[C@H](C)CC5)n3)cc2C1` [Example 12], for which the half-maximal inhibitory concentration (IC50) lay within 1.25 to 10 nM.

Consider `COc1cc2c(cc1C(=O)Nc1cccc(-c3nnc4n3C(C)(C)CC4)n1)CN(C(=O)OC(C)(C)C)CC2` [Example 14, tert-butyl 7-((6-(5,5-dimethyl-6,7-dihydro-5H-pyrrolo[2,1-c][1,2,4]triazol-3-yl)pyridin-2-yl)carbamoyl)-6-methoxy-3,4-dihydroisoquinoline-2(1H)-carboxylate], for which the IC50 was 1.25 to 10 nM.

As for `CCOC(=O)N1CCc2cc(F)c(C(=O)Nc3cccc(-c4nnc5n4C(C)(C)CC5)n3)cc2C1` [Example 11, Ethyl 7-((6-(5,5-dimethyl-6,7-dihydro-5H-pyrrolo[2,1-c][1,2,4]triazol-3-yl)pyridin-2-yl)carbamoyl)-6-fluoro-3,4-dihydroisoquinoline-2(1H)-carboxylate], the IC50 fell in the range of 1.25 to 10 nM.

`COc1cc2c(cc1C(=O)Nc1cccc(-c3nnc4n3C(C)(C)CC4)n1)CN(C(=O)C[C@H](C)O)CC2` [Example 18, (S)—N-(6-(5,5-dimethyl-6,7-dihydro-5H-pyrrolo[2,1-c][1,2,4]triazol-3-yl)pyridin-2-yl)-2-(3-hydroxybutanoyl)-6-methoxy-1,2,3,4-tetrahydroisoquinoline-7-carboxamide] displayed a 50% inhibitory concentration (IC50) of less than 1.25 nM.
